Key:
human LXRβ = target: T1, human LXRβ (Homo sapiens, UniProt P55055); assay: Ligand-binding test procedure for human LXRβ (3H T0901317 competition, flash plates); settings: for Binding ratio a/b: IC50 (μM) LXRα binding/IC50 (μM) LXRβ binding; for IC50: biotinylated hLXRβ, tracer 3H T0901317
T1 construct: biotin (biotinylated; biotinylation tag not described); made in house; host or cells: E. coli
T1 sequence (P55055 1-460): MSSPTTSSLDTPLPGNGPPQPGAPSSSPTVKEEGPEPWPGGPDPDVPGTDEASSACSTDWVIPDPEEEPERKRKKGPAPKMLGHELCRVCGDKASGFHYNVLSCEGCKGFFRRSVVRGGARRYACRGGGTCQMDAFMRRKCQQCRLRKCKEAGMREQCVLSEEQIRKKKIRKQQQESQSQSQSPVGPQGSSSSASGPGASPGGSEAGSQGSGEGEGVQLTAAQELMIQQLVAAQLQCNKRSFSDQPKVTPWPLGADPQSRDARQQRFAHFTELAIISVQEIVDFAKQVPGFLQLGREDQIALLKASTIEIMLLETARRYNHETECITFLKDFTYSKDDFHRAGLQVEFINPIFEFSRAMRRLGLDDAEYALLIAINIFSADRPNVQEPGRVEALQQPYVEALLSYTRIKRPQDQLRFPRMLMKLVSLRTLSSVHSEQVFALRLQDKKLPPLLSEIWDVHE

ABCA1 gene = assay: Quantitative analysis of ABCA1 gene regulation in THP-1 cells (real-time RT-PCR); format: cell-based, human; settings: differentiated THP-1 cells, ABCA1 mRNA, 18 hrs; for EC50: Homo sapiens; for THP cells ABCA1 Ag. (%): LXR agonist reference at 1.0 uM as positive control
Protocol: Quantitative Analysis of ABCA1 Gene Regulation in THP-1 Cells. […] Materials and Methods Cell culture: The THP-1 monocytic cell line (ATCC # TIB-202) was obtained from American Type Culture Collection (Manassas, Va.) and cultured in RPMI 1640 medium (Gibco, Carlsbad, Calif.) containing 10% FBS, 2 mM L-glutamine, and 55 uM beta-Mercaptoethanol (BME). […] Louis, Mo.) for three days to induce differentiation into adherent macrophages. Differentiated THP-1 cells were treated with test compounds or ligands dissolved in DMSO (Sigma, D-8779) in culture medium lacking phorbal ester. […] L., J. Med. Chem. (2000), 45:1963-1966.). Results of antagonist analysis are expressed as % antagonism and IC50 (in μM).

human LXRα = target: T2, human LXRα (Homo sapiens, UniProt Q13133); assay: Ligand-binding test procedure for human LXRα (3H T0901317 competition, flash plates); settings: biotinylated hLXRα, tracer 3H T0901317
T2 construct: biotin (biotinylated; biotinylation tag not described); made in house; host or cells: E. coli
T2 sequence (Q13133 1-447): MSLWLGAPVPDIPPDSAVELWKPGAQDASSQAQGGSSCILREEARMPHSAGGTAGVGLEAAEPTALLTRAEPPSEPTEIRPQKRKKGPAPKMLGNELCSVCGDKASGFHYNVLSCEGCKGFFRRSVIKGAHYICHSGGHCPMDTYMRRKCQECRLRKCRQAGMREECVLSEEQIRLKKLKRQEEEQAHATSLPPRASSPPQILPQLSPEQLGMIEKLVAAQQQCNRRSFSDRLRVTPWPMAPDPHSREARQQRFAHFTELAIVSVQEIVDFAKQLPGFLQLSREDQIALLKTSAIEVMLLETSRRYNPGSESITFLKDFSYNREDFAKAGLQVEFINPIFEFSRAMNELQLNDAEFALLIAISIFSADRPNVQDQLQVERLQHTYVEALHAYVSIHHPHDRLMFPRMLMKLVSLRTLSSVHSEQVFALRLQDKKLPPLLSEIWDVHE
Method in brief: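 Competition binding of test ligands against 5 nM ³H tracer solution (pre-mix concentration) on biotinylated hLXRα from E. coli extract, captured on streptavidin flash plates (Bmax ~4000 cpm). Ligand dilution series made in DMSO. Incubated overnight at +4 °C; bound radioactivity counted after washing.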

| Binding ratio a/b (human LXRβ) | IC50 (human LXRβ) | EC50 (ABCA1 gene) | IC50 (human LXRα) | Compound | THP cells ABCA1 Ag. (%) (ABCA1 gene) |
| --- | --- | --- | --- | --- | --- |
| 30 | 26 nM | 3390 nM | 779 nM | O=C(O)Cc1cccc2c(OCc3cccc(-c4ccnc5c(C(F)(F)F)cccc45)c3)cccc12 [Example 5, [5-({3-[8-(Trifluoromethyl)quinolin-4-yl]benzyl}oxy)-1-naphthyl]acetic acid] | 69.4% |
| 22 | 13 nM | 1140 nM | 294 nM | Cc1cnc2c(C(F)(F)F)cccc2c1-c1cccc(COc2cccc3c(CC(=O)O)cccc23)c1 [Example 9] | 122.6% |
| 22 | 10 nM | 2630 nM | 211 nM | Cc1cnc2c(C(F)(F)F)cccc2c1-c1cccc(CNc2cccc3c(CC(=O)O)cccc23)c1 [Example 13, [5-({3-[3-methyl-8-(trifluoromethyl)quinolin-4-yl]benzyl}amino)-1-naphthyl]acetic acid] | 107.8% |

Reference: patent US20090069373A1, “Quinoline Acids” (Wyeth, priority 2007, published 2009)
